The values that follow come from patent publication US20240398828A1, “HETERO-ATOM CONTAINING COMPOUNDS AND USES THEREOF” (Kumquat Biosciences Inc., priority 2021, published 2024).

In one test the target is T1, PTPN1 (i.e., PTP1B) (Homo sapiens, UniProt P18031).
T1 sequence (P18031 1-435): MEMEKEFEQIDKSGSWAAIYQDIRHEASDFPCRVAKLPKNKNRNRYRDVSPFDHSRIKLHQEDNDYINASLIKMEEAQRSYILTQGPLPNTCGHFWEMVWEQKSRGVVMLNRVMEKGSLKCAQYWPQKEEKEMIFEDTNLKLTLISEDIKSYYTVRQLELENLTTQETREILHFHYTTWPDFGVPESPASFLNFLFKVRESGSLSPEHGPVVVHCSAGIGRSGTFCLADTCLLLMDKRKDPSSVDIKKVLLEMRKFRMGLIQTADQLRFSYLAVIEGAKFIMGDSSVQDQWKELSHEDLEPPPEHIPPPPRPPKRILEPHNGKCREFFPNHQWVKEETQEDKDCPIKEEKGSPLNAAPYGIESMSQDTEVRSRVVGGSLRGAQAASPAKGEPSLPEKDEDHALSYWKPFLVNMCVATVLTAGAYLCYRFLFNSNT
The test can be described thus: Phosphatase activity assay (DiFMUP substrate), PTP1B. The class given is biochemical. To be noted: compounds binned ≤1 uM or >1 uM. The procedure:
(§1) The selectivity and potency of a small molecule PTPN2 inhibitor as provided herein against one or more protein tyrosine phosphatase (PTP) enzymes, and specifically against PTPN2, is assessed in various ways. The one or more PTP enzymes comprise Mycobacterium protein tyrosine phosphatase A (mPTPA), Mycobacterium protein tyrosine phosphatase B (mPTPB), PTPN1 (i.e., PTP1B), PTPN2 (i.e., TC-PTP), PTPN22 (i.e., LYP), SHP-1, SHP-2, FAP-1, Meg2, HePTP, Laforin, VHX, VHR, LMWPTP, Cdc14A, LAR, CD45, PTPRG, a fragment thereof, a variant thereof, and a combination thereof. Selectivity and potency of a small molecule PTPN2 inhibitor is evaluated using a PTP activity inhibition assay. The assay is performed using a buffer comprising 50 mM HEPES buffer pH 7.5, 150 mM NaCl, 0.5 mM EDTA, 1 mM DTT, 0.001% Tween-20.
(§2) The assay is performed using a phosphated substrate, e.g., 10 mM 6,8-Difluoro-4-Methylumbelliferyl Phosphate (DIFMUP) that is stored at −20° C. Alternatively or in addition to, the assay is performed using other phosphated substrate (e.g., fluorescein diphosphate). Each PTP enzyme is diluted in the assay buffer
(§3) The assay can be carried out at room temperature in multiplate format, e.g., using 384 well plates. A small molecule PTPN2 inhibitor dissolved in DMSO at one of 10 concentrations from a serial dilution or DMSO alone for control is added to each well. A mixture of the assay buffer comprising PTP enzyme (e.g., 0.025 ng/ul PTPN2) is added to each well and mixed for approximately 2 minutes. The reaction is initiated by adding DiFMUP diluted in the assay buffer to a final concentration of approximately 45 μM DiFMUP in PTPN2 assay. For each PTP enzyme, DiFMUP is added at the Km (Michaelis constant) of the enzyme that had been independently determined. The phosphatase activity of the PTP enzyme is assessed by monitoring appearance of a fluorescent product (6,8-difluoro-7-hydroxyl-4-coumarin (DiFMU) from DiFMUP) continuously for about 15 to 30 minutes, using the INFINITE M1000Pro plate reader (Tecan) with excitation at 360 nm and emission at 450 nm (cutoff filter at 435 nm) for DiFMU. Each assay is performed at least in duplicate. The rate (e.g., the initial rate) of DiFMU formation is plotted against the concentration of the small molecule PTPN2 inhibitor, and the data is fitted (e.g., using a 4-parameter equation) to determine the inflection point of the fit as the IC50 of the small molecule PTPN2 inhibitor for a specific enzyme. Utilizing this assay, the ability of the compounds in Table 2 to inhibit PTPN2 and PTP1B has been assessed. Table 3 summarizes the IC50 values.

In a further test the target is T2, PTPN2 (i.e., TC-PTP) (Homo sapiens, UniProt P17706).
T2 sequence (P17706 1-415): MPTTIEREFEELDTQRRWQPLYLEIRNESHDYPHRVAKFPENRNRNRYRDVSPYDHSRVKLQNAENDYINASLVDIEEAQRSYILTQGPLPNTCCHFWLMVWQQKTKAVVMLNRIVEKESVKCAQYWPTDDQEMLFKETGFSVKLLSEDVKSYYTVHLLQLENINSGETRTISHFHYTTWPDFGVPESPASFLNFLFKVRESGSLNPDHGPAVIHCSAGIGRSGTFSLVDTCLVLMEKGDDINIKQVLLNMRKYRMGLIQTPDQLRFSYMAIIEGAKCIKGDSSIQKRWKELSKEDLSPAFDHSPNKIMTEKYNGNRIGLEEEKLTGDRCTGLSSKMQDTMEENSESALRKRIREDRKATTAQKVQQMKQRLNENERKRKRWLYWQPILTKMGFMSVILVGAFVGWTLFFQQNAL
The test can be described thus: Phosphatase activity assay (DiFMUP substrate), PTPN2. To be noted: compounds binned ≤1 uM or >1 uM. Type of test: biochemical. On the procedure:
as §1, §2, §3

`O=C1CN(c2c(O)ccc(-c3cc(N4CCC5(COC5)C4)n[nH]3)c2F)S(=O)(=O)N1` [Compound 431, 5-(3-(3-(2-oxa-6-azaspiro[3.4]octan-6-yl)-1H-pyrazol-5-yl)-2-fluoro-6-hydroxyphenyl)-1,2,5-thiadiazolidin-3-one 1,1-dioxide]: the IC50 is at most 1000 nM on PTPN1 (i.e., PTP1B) and at most 1000 nM on PTPN2 (i.e., TC-PTP).

With `O=C1CN(c2c(O)ccc(-c3cn(-c4ccc(F)cc4)cn3)c2F)S(=O)(=O)N1` [Compound 209, 5-(2-fluoro-3-(1-(4-fluorophenyl)-1H-imidazol-4-yl)-6-hydroxyphenyl)-1,2,5-thiadiazolidin-3-one 1,1-dioxide], the IC50 was at most 1000 nM at PTPN1 (i.e., PTP1B) and at most 1000 nM at PTPN2 (i.e., TC-PTP).

Turning to `O=C1CN(c2c(O)ccc(-c3ccc(OCc4ccccc4)nc3)c2F)S(=O)(=O)N1` [Compound 143, 5-(3-(6-(benzyloxy)pyridin-3-yl)-2-fluoro-6-hydroxyphenyl)-1,2,5-thiadiazolidin-3-one 1,1-dioxide], the IC50 at PTPN1 (i.e., PTP1B) was at most 1000 nM; at PTPN2 (i.e., TC-PTP), at most 1000 nM.

Turning to `COc1cccc(-n2cnc(-c3ccc(O)c(N4CC(=O)NS4(=O)=O)c3F)c2)c1` [Compound 445, 5-(2-fluoro-6-hydroxy-3-(1-(3-methoxyphenyl)-1H-imidazol-4-yl)phenyl)-1,2,5-thiadiazolidin-3-one 1,1-dioxide], the IC50 on PTPN1 (i.e., PTP1B) is at most 1000 nM; at PTPN2 (i.e., TC-PTP) it was at most 1000 nM.

Turning to `O=C1CN(c2c(O)ccc(-c3cn(C4CC4)[nH]c3=O)c2F)S(=O)(=O)N1` [Compound 245, 5-(3-(1-cyclopropyl-3-oxo-2,3-dihydro-1H-pyrazol-4-yl)-2-fluoro-6-hydroxyphenyl)-1,2,5-thiadiazolidin-3-one 1,1-dioxide], the IC50 on PTPN1 (i.e., PTP1B) was at most 1000 nM; on PTPN2 (i.e., TC-PTP), at most 1000 nM.

Turning to `NC(=O)Cn1nc(-c2ccc(O)c(N3CC(=O)NS3(=O)=O)c2F)cc1C1CC1` [Compound 229, 2-(5-cyclopropyl-3-(3-(1,1-dioxido-4-oxo-1,2,5-thiadiazolidin-2-yl)-2-fluoro-4-hydroxyphenyl)-1H-pyrazol-1-yl)acetamide], the IC50 at PTPN1 (i.e., PTP1B) is at most 1000 nM; at PTPN2 (i.e., TC-PTP), at most 1000 nM.

For the compound `O=C1CN(c2c(O)ccc(-c3ccc(NC(=O)C4CC4(F)F)cc3)c2F)S(=O)(=O)N1` (stereo not shown) [Compound 403, N-(3′-(1,1-dioxido-4-oxo-1,2,5-thiadiazolidin-2-yl)-2′-fluoro-4′-hydroxy-[1,1′-biphenyl]-4-yl)-2,2-difluorocyclopropane-1-carboxamide], the IC50 on PTPN1 (i.e., PTP1B) was at most 1000 nM; on PTPN2 (i.e., TC-PTP), at most 1000 nM.

Turning to `O=C1CN(c2c(O)ccc(C3=CCSCC3)c2F)S(=O)(=O)N1` [Compound 294, 5-(3-(3,6-dihydro-2H-thiopyran-4-yl)-2-fluoro-6-hydroxyphenyl)-1,2,5-thiadiazolidin-3-one 1,1-dioxide], the IC50 was at most 1000 nM at PTPN1 (i.e., PTP1B) and at most 1000 nM on PTPN2 (i.e., TC-PTP).

As for `N#CC1CC1c1cc(-c2ccc(O)c(N3CC(=O)NS3(=O)=O)c2F)[nH]n1` (stereo not shown) [Compound 478, 2-(5-(3-(1,1-dioxido-4-oxo-1,2,5-thiadiazolidin-2-yl)-2-fluoro-4-hydroxyphenyl)-1H-pyrazol-3-yl)cyclopropane-1-carbonitrile], the IC50 was at most 1000 nM on PTPN1 (i.e., PTP1B) and at most 1000 nM at PTPN2 (i.e., TC-PTP).

Regarding `O=C1CN(c2c(O)ccc(-c3cnn(Cc4cccc(C(F)(F)F)c4)c3)c2F)S(=O)(=O)N1` [Compound 159, 5-(2-fluoro-6-hydroxy-3-(1-(3-(trifluoromethyl)benzyl)-1H-pyrazol-4-yl)phenyl)-1,2,5-thiadiazolidin-3-one 1,1-dioxide], the IC50 on PTPN1 (i.e., PTP1B) is at most 1000 nM; on PTPN2 (i.e., TC-PTP) it was at most 1000 nM.

With `Cn1cc(-c2ccc(O)c(N3CC(=O)NS3(=O)=O)c2F)cc1CCC1CC1` [Compound 392, 5-(3-(5-(2-cyclopropylethyl)-1-methyl-1H-pyrrol-3-yl)-2-fluoro-6-hydroxyphenyl)-1,2,5-thiadiazolidin-3-one 1,1-dioxide], the IC50 at PTPN1 (i.e., PTP1B) was at most 1000 nM; at PTPN2 (i.e., TC-PTP) it was at most 1000 nM.

In general, IC50 refers to the point on the concentration scale where inhibition reaches its midpoint.
